Data as given in ChEMBL document CHEMBL4376803, “Recent Advances in the Exploration of Therapeutic Analogues of Gramicidin S, an Old but Still Potent Antimicrobial Peptide” (J Med Chem, 2019).
≈ marks a conversion by molar mass, not a printed value. Square brackets hold non-standard residues; d marks the D form. Peptide text beside a SMILES is read from it. Orn = NCCC[C@H](N)C(=O)O

Key:
Type in all cases: functional
[1] = tested on: Staphylococcus epidermidis; experiment: Antibacterial activity against Staphylococcus epidermidis
[2] = tested on: Staphylococcus aureus; experiment: Antibacterial activity against Staphylococcus aureus
[3] = tested on: Staphylococcus xylosus; experiment: Antibacterial activity against Staphylococcus xylosus
[4] = tested on: Priestia megaterium; experiment: Antibacterial activity against Bacillus megaterium ATCC 19213 after overnight incubation by microplate dilution method
[5] = tested on: Staphylococcus aureus; experiment: Antibacterial activity against Staphylococcus aureus ATCC 25923 after 22 hrs by double dilution method; conditions: ATCC 25923, 22 h
[6] = tested on: Escherichia coli; experiment: Antibacterial activity against Escherichia coli ATCC 8739 incubated for 48 hrs; conditions: ATCC 8739, 48 h
[7] = tested on: Staphylococcus aureus; experiment: Antibacterial activity against Staphylococcus aureus K147 after overnight incubation by microtiter dilution method
[8] = tested on: Escherichia coli; experiment: Antibacterial activity against Escherichia coli NBRC 12734
[9] = tested on: Bacillus cereus; experiment: Antibacterial activity against Bacillus cereus ATCC 11778 incubated for 24 hrs; conditions: ATCC 11778, 24 h
[10] = tested on: Staphylococcus aureus; experiment: Antibacterial activity against Staphylococcus aureus ATCC 49975 after 16 to 20 hrs by broth microdilution method
[11] = tested on: Escherichia coli; experiment: Antibacterial activity against Escherichia coli NBRC 12734 after overnight incubation by microplate dilution method
[12] = tested on: Enterococcus faecalis; experiment: Antibacterial activity against Enterococcus faecalis 1131 after 24 hrs by broth dilution method; conditions: Enterococcus faecalis, 1131, 24 h
[13] = tested on: Escherichia coli; experiment: Antibacterial activity against Escherichia coli K-12 ATCC 29181 after overnight incubation by broth microdilution method
[14] = tested on: Staphylococcus aureus; experiment: Antibacterial activity against Staphylococcus aureus NBRC 12732
[15] = tested on: Bacillus subtilis; experiment: Antibacterial activity against Bacillus subtilis NBRC 3513
[16] = tested on: Pseudomonas aeruginosa; experiment: Antibacterial activity against Pseudomonas aeruginosa NBRC 3080 after overnight incubation by microplate dilution method
[17] = tested on: Pseudomonas aeruginosa; experiment: Antibacterial activity against Pseudomonas aeruginosa ATCC 27853
[18] = tested on: Pseudomonas aeruginosa; experiment: Antibacterial activity against Pseudomonas aeruginosa H187 after overnight incubation by microtiter dilution method
[19] = tested on: Staphylococcus epidermidis; experiment: Antibacterial activity against Staphylococcus epidermidis ATCC 27626 after overnight incubation by broth microdilution method
[20] = tested on: Staphylococcus epidermidis; experiment: Antibacterial activity against Staphylococcus epidermidis ATCC 12228 after 22 hrs by double dilution method; conditions: ATCC 12228, 22 h
[21] = tested on: Staphylococcus aureus; experiment: Antibacterial activity against methicillin-resistant Staphylococcus aureus NT 1110301981H-T034-PVL+ incubated for 24 hrs
[22] = tested on: Staphylococcus aureus; experiment: Antibacterial activity against Staphylococcus aureus ATCC 29213 after 24 hrs; conditions: ATCC 29213, 24 h
[23] = tested on: Candida albicans; experiment: Antibacterial activity against Candida albicans after overnight incubation by microtiter dilution method
[24] = tested on: Staphylococcus aureus; experiment: Antibacterial activity against Staphylococcus aureus NBRC 12732 after overnight incubation by microplate dilution method
[25] = tested on: Staphylococcus aureus; experiment: Antibacterial activity against methicillin-resistant Staphylococcus aureus ATCC 4330
[26] = tested on: Escherichia coli; experiment: Antibacterial activity against Escherichia coli UB1005 after overnight incubation by microtiter dilution method
[27] = tested on: Staphylococcus aureus; experiment: Antibacterial activity against Staphylococcus aureus 7323
[28] = tested on: Bacillus subtilis; experiment: Antibacterial activity against Bacillus subtilis CIP 52.65 incubated for 48 hrs; conditions: CIP 52.65, 48 h
[29] = tested on: Salmonella; experiment: Antibacterial activity against Salmonella after overnight incubation by broth microdilution method
[30] = tested on: Enterococcus faecalis; experiment: Antibacterial activity against Enterococcus faecalis ATCC 29212 after overnight incubation by microtiter dilution method
[31] = tested on: Staphylococcus aureus; experiment: Antibacterial activity against Staphylococcus aureus 209P incubated for 20 hrs by liquid microdilution method
[32] = tested on: Pseudomonas aeruginosa; experiment: Antibacterial activity against Pseudomonas aeruginosa ATCC 27853 after 22 hrs by double dilution method; conditions: ATCC 27853, 22 h
[33] = tested on: Staphylococcus epidermidis; experiment: Antibacterial activity against Staphylococcus epidermidis ATCC 12228 incubated for 24 hrs; conditions: ATCC 12228, 24 h
[34] = tested on: Bacillus subtilis; experiment: Antibacterial activity against Bacillus subtilis NBRC 3513 after overnight incubation by microplate dilution method
[35] = tested on: Pseudomonas aeruginosa; experiment: Antibacterial activity against Pseudomonas aeruginosa ATCC 9027 incubated for 48 hrs; conditions: ATCC 9027, 48 h
[36] = tested on: Escherichia coli; experiment: Antibacterial activity against Escherichia coli ATCC 25922 after 22 hrs by double dilution method; conditions: ATCC 25922, 22 h
[37] = tested on: Staphylococcus aureus; experiment: Antibacterial activity against vancomycin-resistant Staphylococcus aureus Mu50/ATCC 700699 after overnight incubation by broth microdilution method
[38] = tested on: Escherichia coli; experiment: Antibacterial activity against Escherichia coli ATCC 25922
[39] = tested on: Pseudomonas aeruginosa; experiment: Antibacterial activity against Pseudomonas aeruginosa ATCC 19582 after 24 hrs by broth dilution method; conditions: ATCC 19582, 24 h
[40] = tested on: Enterococcus faecalis; experiment: Antibacterial activity against Enterococcus faecalis ATCC 29212 after 24 hrs; conditions: ATCC 29212, 24 h
[41] = tested on: Escherichia coli; experiment: Antibacterial activity against Escherichia coli ATCC 25922 after 24 hrs by broth dilution method; conditions: ATCC 25922, 24 h
[42] = tested on: Klebsiella pneumoniae; experiment: Antibacterial activity against Klebsiella pneumonia K6 ATCC 700603 after overnight incubation by broth microdilution method; conditions: 700603 K6
[43] = tested on: Escherichia coli; experiment: Antibacterial activity against Escherichia coli K-12 strain W3110 incubated for 20 hrs by liquid microdilution method; conditions: K-12 substr. W3110, 20 h
[44] = tested on: Priestia megaterium; experiment: Antibacterial activity against Bacillus megaterium ATCC 19213
[45] = tested on: Pseudomonas aeruginosa; experiment: Antibacterial activity against Pseudomonas aeruginosa ATCC 27853 incubated for 24 hrs; conditions: ATCC 27853, 24 h
[46] = tested on: Pseudomonas aeruginosa; experiment: Antibacterial activity against Pseudomonas aeruginosa NBRC 3080
[47] = tested on: Staphylococcus aureus; experiment: Antibacterial activity against Staphylococcus aureus ATCC 6538 incubated for 48 hrs; conditions: ATCC 6538, 48 h
[48] = tested on: Staphylococcus aureus; experiment: Antibacterial activity against multidrug-resistant Staphylococcus aureus ATCC BAA-44 after overnight incubation by broth microdilution method
[49] = tested on: Staphylococcus aureus; experiment: Antibacterial activity against Staphylococcus aureus ATCC 29213
[50] = tested on: Escherichia coli; experiment: Antibacterial activity against Escherichia coli ATCC 25922 after 24 hrs; conditions: ATCC 25922, 24 h
[51] = tested on: Enterococcus faecalis; experiment: Antibacterial activity against Enterococcus faecalis ATCC 29212 after 22 hrs by double dilution method; conditions: ATCC 29212, 22 h
[52] = tested on: Enterococcus faecalis; experiment: Antibacterial activity against Enterococcus faecalis ATCC 29212

CC(C)C[C@@H]1NC(=O)[C@H](CCCN)NC(=O)[C@H](C(C)C)NC(=O)[C@@H]2CCCN2C(=O)[C@@H](Cc2ccccc2)NC(=O)[C@H](CC(C)C)NC(=O)[C@H](CCCN)NC(=O)[C@H](C(C)C)NC(=O)C2=CC3=C4CCCC4=C4C=C(SC4(C)C3(C)S2)C(=O)NNC1=O (stereo not given in full)
MIC [1]: 32 µg/mL (≈ 25.8 µM) | MIC [2]: 16 µg/mL (≈ 12.9 µM) | MIC [3]: 32 µg/mL (≈ 25.8 µM)

CC(C)C[C@@H]1NC(=O)[C@H](CCCN)NC(=O)[C@H](C(C)C)NC(=O)[C@@H]2CCCN2C(=O)[C@@H](Cc2ccccc2)NC(=O)[C@H](CC(C)C)NC(=O)[C@H](CCCN)NC(=O)[C@H](C(C)C)NC(=O)[C@@H]2CCCN2C(=O)[C@@H](Cc2ccccc2)NC1=O (cyclo(V[Orn]L[dF]PV[Orn]L[dF]P))
MIC [4]: 3.13 µg/mL (≈ 2.74 µM) | MIC [5]: 4 µg/mL (≈ 3.5 µM) | MIC [6]: 12.5 µg/mL (≈ 11 µM) | MIC [7]: 1.5 µg/mL (≈ 1.31 µM) | MIC [8]: 25 µg/mL (≈ 21.9 µM) | MIC [9]: 8 µg/mL (≈ 7.01 µM) | MIC [10]: 2 µg/mL (≈ 1.75 µM) | MIC [11]: 25 µg/mL (≈ 21.9 µM) | MIC [12]: 8 µg/mL (≈ 7.01 µM) | MIC [1]: 2 µg/mL (≈ 1.75 µM) | MIC [13]: 28 µg/mL (≈ 24.5 µM) | MIC [14]: 3.13 µg/mL (≈ 2.74 µM) | MIC [15]: 3.13 µg/mL (≈ 2.74 µM) | MIC [16]: 25 µg/mL (≈ 21.9 µM) | MIC [17]: 64 µg/mL (≈ 56.1 µM) | MIC [18]: 20 µg/mL (≈ 17.5 µM) | MIC [19]: 1.8 µg/mL (≈ 1.58 µM) | MIC [20]: 2 µg/mL (≈ 1.75 µM) | MIC [21]: 8 µg/mL (≈ 7.01 µM) | MIC [22]: 8 µg/mL (≈ 7.01 µM) | MIC [23]: 3.1 µg/mL (≈ 2.72 µM) | MIC [24]: 3.13 µg/mL (≈ 2.74 µM) | MIC [25]: 8 µg/mL (≈ 7.01 µM) | MIC [26]: 6.2 µg/mL (≈ 5.43 µM) | MIC [27]: 8 µg/mL (≈ 7.01 µM) | MIC [28]: 1.56 µg/mL (≈ 1.37 µM) | MIC [29]: 28 µg/mL (≈ 24.5 µM) | MIC [30]: 2.8 µg/mL (≈ 2.45 µM) | MIC [31]: 4 µg/mL (≈ 3.5 µM) | MIC [32]: 64 µg/mL (≈ 56.1 µM) | MIC [33]: 8 µg/mL (≈ 7.01 µM) | MIC [34]: 3.13 µg/mL (≈ 2.74 µM) | MIC [35]: 50 µg/mL (≈ 43.8 µM) | MIC [36]: 32 µg/mL (≈ 28 µM) | MIC [37]: 3.6 µg/mL (≈ 3.15 µM) | MIC [38]: 32 µg/mL (≈ 28 µM) | MIC [39]: 8 µg/mL (≈ 7.01 µM) | MIC [40]: 8 µg/mL (≈ 7.01 µM) | MIC [41]: 32 µg/mL (≈ 28 µM) | MIC [42]: 3.6 µg/mL (≈ 3.15 µM) | MIC [43]: 32 µg/mL (≈ 28 µM) | MIC [44]: 3.13 µg/mL (≈ 2.74 µM) | MIC [45]: 64 µg/mL (≈ 56.1 µM) | MIC [2]: 2 µg/mL (≈ 1.75 µM) | MIC [46]: 25 µg/mL (≈ 21.9 µM) | MIC [47]: 3.12 µg/mL (≈ 2.74 µM) | MIC [3]: 1 µg/mL (≈ 0.876 µM) | MIC [48]: 1.8 µg/mL (≈ 1.58 µM) | MIC [49]: 4 µg/mL (≈ 3.5 µM) | MIC [50]: 32 µg/mL (≈ 28 µM) | MIC [51]: 8 µg/mL (≈ 7.01 µM) | MIC [52]: 8 µg/mL (≈ 7.01 µM)
